Measurements from patent US7205298B2, “Substituted triazine kinase inhibitors” (Janssen Pharmaceutica N.V., priority 2002, dated 2007).

Key:
[1] = target: T1, CDK1:Cyclin-B (Homo sapiens, UniProt P06493); experiment: CDK1 Screening Assay; format: biochemical
T1 construct: purchased New England Biolabs 6020; host or cells: insect cells
Procedure: A kinase reaction mixture was prepared containing 50 mM Tris-HCl pH=8, 10 mM MgCl2, 0.1 mM Na3PO4, 1 mM DTT, 10 μM ATP, 0.025 μM biotinylated histone-H1 peptide substrate (also referred to herein as a CDK-1 peptide substrate, see substrate table) and 0.2 μCuries per well ^33P-γ-ATP (2000–3000 Ci/mmol). 70 μL of the kinase reaction mixture was dispensed into the well of a streptavidin coated FlashPlate™ (Cat. # SMP 103, NEN, Boston, Mass.). Then 1 μL of test compound stock in 100% DMSO was added to the wells resulting in a final concentration of 1% DMSO in the reaction with a 100 μl final reaction volume. Next, CDK1:Cyclin-B protein (New England Biolads, infra) was diluted in 50 mM Tris-HCl pH=8.0, 0.1% BSA at a concentration of 1 ng per μL and 30 μl (30 ng enzyme per test well) was added to each well to initiate the reaction. The reaction was incubated for one hour at 30° C. At the end of the 1-hour incubation, the reaction was terminated by aspirating the reaction mixture from the plate and washing the wells twice with PBS containing 100 mM EDTA. The histone-H1 biotinylated peptide substrate became immobilized on the Flashplate™ (Perkin Elmer, NEN Boston, Mass.) and the incorporation of ^33P-γ-ATP was measured by reading the plate on a scintillation counter. Inhibition of the enzymatic activity of CDK1 was measured by observing a reduced amount of ^33P-γ-ATP incorporated into the immobilized peptide.
(§1) Assays to test compound inhibition of other kinases were preformed using methods that measure the amount of phosphorylation of a biotinylated peptide substrate. Biotinylated peptide substrates were selected from the literature as appropriate for the enzyme being evaluated. The general procedure used to assay for kinase activity is as follows: a kinase reaction mix was prepared in 50 mM Tris-HCl pH=8, 10 mM MgCl2, 0.1 mM Na3VO4, 1 mM DTT, 10 μM ATP, 0.25–1 μM biotinylated peptide substrate, 0.2–0.8 μCuries per well ^33P-γ-ATP (2000–3000 Ci/mmol). Assay conditions vary slightly for each protein kinase, for example, insulin receptor kinase requires 10 mM MnCl2 for activity and Calmodulin-dependent protein kinase requires calmodulin and 2 mM CaCl2. The reaction mixture was dispensed into the wells of a streptavidin coated Flashplate and 1 μL test compound in 100% DMSO was added to a 100 μL reaction volume resulting in a final concentration of 1% DMSO in the reaction. Enzyme was diluted in 50 mM Tris-HCl pH=8.0, 0.1% BSA and added to each well. The reaction was incubated for one hour at 30° C. in the presence of a test compound. After one hour the reaction mix was aspirated from the plate and the plate was washed with PBS containing 100 mM EDTA. The plate was read on a scintillation counter to determine ^33P-γ-ATP incorporated into the immobilized peptide substrate. Test compounds were assayed in duplicate at 8 concentrations (100 μM, 10 μM, 1 μM, 100 nM, 10 nM, 1 nM, 100 pM, 10 pM). A maximum and minimum signal for the assay was determined on each plate. […] Known inhibitor compounds appropriate for the kinase being assayed were also included on each plate.
(§2) The form of VEGF-R (vascular endothelial growth factor receptor-2) used was a fusion protein containing a polyhistidine tag at the N-terminus followed by amino acids 786–1343 of the rat VEGF-R2 kinase domain (GenBank Accession #U93306). The form of CDK1 (cyclin dependent kinase 1) used was isolated from insect cells expressing both the human CDK1 catalytic subunit and its positive regulatory subunit cyclin B (CDK1:cyclin B protein, New England Biolabs, Beverly, Mass., Cat. #6020). The form of CDK4 (cyclin dependent kinase 4) used contains amino acids 769 to 921 of the mouse […] protein found in the GST-retinoblastoma protein construct (Santa Cruz Biotechnology, Santa Cruz, Calif.; Cat. #SC-4112). The form of EGF-R1 (epidermal growth factor receptor 1) used was purified from human A431 cell membranes (Sigma, St. Louis, Mo., Cat.# E3641). […]

[2] = target: T2, VEGF-R (rat VEGF-R2 kinase domain) (Rattus norvegicus, UniProt O08775); experiment: VEGF-R Screening Assay; format: biochemical
T2 construct: 6xHis (polyhistidine) (N)
Procedure: A kinase reaction mixture was prepared containing 50 mM Tris-HCl pH=8, 10 mM MgCl2, 0.1 mM Na3PO4, 1 mM DTT, 10 μM ATP, 0.025 μM biotinylated peptide substrate (also referred to herein as PLC-1 biotinylated peptide substrate and PDGF receptor substrate, sequence provided in the peptide substrate table) and 0.8 μCuries per well ^33P-γ-ATP (2000–3000 Ci/mmol). 70 μL of the kinase reaction mixture was dispensed into the well of a streptavidin coated FlashPlate™ (Cat. # SMP103, NEN, Boston, Mass.). Then 1 μL of test compound stock in 100% DMSO was added to the wells resulting in a final concentration of 1% DMSO in the reaction with a 100 μL final reaction volume. Next, soluble rat VEGF tyrosine kinase containing an N-terminal 6XHIS tag was diluted in 50 mM Tris-HCl pH=8.0, 0.1% BSA at a concentration of 5 ng per μL and 30 μL (150 ng enzyme per test well) was added to each well to initiate the reaction. The reaction was incubated for one hour at 30° C. At the end of the 1-hour incubation, the reaction was terminated by aspirating the reaction mixture from the plate and washing the wells twice with PBS containing 100 mM EDTA. The PLC1 biotinylated peptide substrate became immobilized on the Flashplate™ and the incorporation of ^33P-γ-ATP was measured by reading the plate on a scintillation counter. Inhibition of the enzymatic activity of the VEGF-R was measured by observing a reduced amount of ^33P-γ-ATP incorporated into the immobilized peptide.
as §1, §2

T2 sequence (O08775 786-1343): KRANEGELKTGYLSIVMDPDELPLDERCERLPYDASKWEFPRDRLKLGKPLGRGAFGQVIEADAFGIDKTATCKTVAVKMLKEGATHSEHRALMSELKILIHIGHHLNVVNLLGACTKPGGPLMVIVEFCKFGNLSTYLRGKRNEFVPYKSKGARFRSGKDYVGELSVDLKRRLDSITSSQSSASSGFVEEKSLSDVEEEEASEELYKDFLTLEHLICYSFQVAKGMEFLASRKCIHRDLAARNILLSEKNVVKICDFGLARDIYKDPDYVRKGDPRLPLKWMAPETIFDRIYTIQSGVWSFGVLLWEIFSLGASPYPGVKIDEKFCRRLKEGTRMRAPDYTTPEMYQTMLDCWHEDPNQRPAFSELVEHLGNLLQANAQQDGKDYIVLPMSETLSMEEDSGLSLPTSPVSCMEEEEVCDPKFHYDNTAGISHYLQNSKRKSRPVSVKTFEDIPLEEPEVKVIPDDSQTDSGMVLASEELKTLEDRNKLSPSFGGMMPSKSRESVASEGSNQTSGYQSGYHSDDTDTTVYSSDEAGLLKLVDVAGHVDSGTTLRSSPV
T1 sequence (P06493 whole entry): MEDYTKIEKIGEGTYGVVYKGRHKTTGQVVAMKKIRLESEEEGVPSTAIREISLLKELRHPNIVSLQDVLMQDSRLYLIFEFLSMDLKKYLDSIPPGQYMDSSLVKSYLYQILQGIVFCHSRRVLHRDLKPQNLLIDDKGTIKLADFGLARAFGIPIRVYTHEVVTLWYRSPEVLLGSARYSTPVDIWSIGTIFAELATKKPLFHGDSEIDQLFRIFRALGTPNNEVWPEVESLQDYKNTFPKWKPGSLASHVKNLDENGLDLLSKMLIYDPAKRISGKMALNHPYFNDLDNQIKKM
T1 sequence (P14635 whole entry partner): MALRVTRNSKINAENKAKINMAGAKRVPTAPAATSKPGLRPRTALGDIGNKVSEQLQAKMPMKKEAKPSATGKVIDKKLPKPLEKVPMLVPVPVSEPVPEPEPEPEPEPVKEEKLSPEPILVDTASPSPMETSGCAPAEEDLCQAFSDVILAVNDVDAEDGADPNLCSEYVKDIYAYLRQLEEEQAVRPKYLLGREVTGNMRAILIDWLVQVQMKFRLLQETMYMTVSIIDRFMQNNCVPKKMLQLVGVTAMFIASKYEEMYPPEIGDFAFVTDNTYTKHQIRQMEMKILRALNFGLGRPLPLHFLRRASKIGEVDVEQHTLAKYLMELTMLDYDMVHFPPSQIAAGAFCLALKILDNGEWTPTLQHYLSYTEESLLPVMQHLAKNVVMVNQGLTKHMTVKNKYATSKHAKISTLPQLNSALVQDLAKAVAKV

IC50 [1] [nM] | IC50 [2] [nM] | Structure (SMILES)
971 | 12900 | OCCCNc1cncc(-c2ncnc(Nc3cccc(Cl)c3)n2)n1 [Compound 3, 3-((6-(4-((3-chlorophenyl)amino)-1,3,5-triazin-2-yl)pyrazin-2-yl)amino)-1-propanol]
766 | 865 | Nc1nc(Nc2cccc(Cl)c2)nc(-c2ccnc(NCCCO)c2)n1 [Compound 4, 3-((4-(4-amino-6-((3-chlorophenyl)amino)-1,3,5-triazin-2-yl)-2-pyridinyl)amino)-1-propanol]
382 | ≥ 10000 | OCCCNc1cncc(-c2ncnc(Nc3ccc4c(c3)OCCO4)n2)c1 [Compound 5, 3-((5-(4-((2,3-dihydro-1,4-benzodioxin-6-yl)amino)-1,3,5-triazin-2-yl)-3-pyridinyl)amino)-1-propanol]
1240 | 5030 | OCCCNc1cncc(-c2ncnc(Nc3ccc(N4CCOCC4)cc3)n2)c1 [Compound 6, 3-((5-(4-((4-(4-morpholinyl)phenyl)amino)-1,3,5-triazin-2-yl)-3-pyridinyl)amino)-1-propanol]
